Values of other authors, collected in US6617154B1, “Electroporation chamber including an electrode having a continuous, crystalline metal nitride coating” (MaxCyte, Inc., priority 1996, dated 2003).

What was measured:
[1] = experimental animals; DPG or its precursors
[2] = molecular target: T1, hemoglobin (Homo sapiens, UniProt P68871); settings: relative to DPG
[3] = molecular target: T1, hemoglobin; settings: pH 7.4, 37 degrees C
[4] = under ordinary circumstances, not bound to hemoglobin
[5] = system: mammalian erythrocyte membrane

T1 sequence (P68871 2-147 limits assumed): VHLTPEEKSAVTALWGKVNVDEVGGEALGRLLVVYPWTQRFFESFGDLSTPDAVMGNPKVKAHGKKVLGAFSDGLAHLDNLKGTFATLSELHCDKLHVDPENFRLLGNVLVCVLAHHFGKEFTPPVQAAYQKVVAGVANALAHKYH
T1 sequence (P69905 2-142 partner limits assumed): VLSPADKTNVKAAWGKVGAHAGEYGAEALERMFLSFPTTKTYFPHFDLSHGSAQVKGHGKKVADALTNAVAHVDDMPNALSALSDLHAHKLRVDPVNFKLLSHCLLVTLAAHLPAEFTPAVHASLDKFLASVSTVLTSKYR

| affinity to hemoglobin, higher than DPG [2] [fold] | P50 of hemoglobin [3] [mm Hg] | passage through the mammalian erythrocyte membrane [5] | Compound | duration of transient elevation of oxygen deposition [1] [h] | toxicity [4] |
| --- | --- | --- | --- | --- | --- |
| – | – | – | O=C(O)C(COP(=O)(O)O)OP(=O)(O)O (centres unmarked) [DPG, 2,3-diphosphoglycerate] | 6 to 12 | – |
| 1000 | ≤ 96.4 | unable to pass | O=P(O)(O)O[C@H]1[C@H](OP(=O)(O)O)[C@@H](OP(=O)(O)O)[C@H](OP(=O)(O)O)[C@@H](OP(=O)(O)O)[C@H]1OP(=O)(O)O [IHP, inositol hexaphosphate] | – | toxic |
